Non-standard residues stand in square brackets, D forms with d. Residues, ends and D or L forms follow the SMILES beside them.
Columns and labels:
[1] = in vivo; settings: for bioavailability / Vd / clearance / half-life: Balb/C, mouse, plasma; for bioavailability: intraperitoneal, 100 mg/kg; for Vd / clearance / half-life: iv; for Kel elimination rate constant: Mouse, IV injection
Experimental: IV injection: Solution of peptide in 9% sucrose (1 mg/mL) was injected IV into the tail vein of Balb/C mice at a dose of 3.6 mg/kg. Then the blood was collected immediately from one group of mice (3 mice per group) by bleeding the tail, separately from each mouse (50-100 uL per mouse). Further collections of blood were done from other groups of mice at times 20, 40, 70, 90, 120, 180, and 260 min after injection. Plasma from each blood sample was separated immediately after collection by spinning down red blood cells over a period of 5 min at 4000 rev./min. The plasma was then diluted with an equal volume of saline and refrigerated until analysis.
IP injection: Solutions of peptide in 9% sucrose (8.1 mg/mL) were injected EP into Balb/C mice at a dose of 100 mg/kg. Blood was collected immediately from one group of mice (3 mice per group) by bleeding the tail, separately from each mouse (50-100 uL per mouse). Further collections of blood were done from other groups of mice at times 0.5, 1, 2, 4, 6, 10, 15 h after injection. Plasma from each blood sample was separated immediately after collection by spinning down red blood cells over a period of 5 min at 4000 rev./min. Plasma was then diluted with equal volume of saline and refrigerated until analysis.
Detection of cyclo[RRKWLWW]-HCl in plasma by HPLC: Diluted with saline plasma (50-100 uL) was added to an eluent A (0.1% HCl in 99% H2O/1% ACN (v/v)) (150-300 uL), vortexed, and partial precipitation was removed by centrifugation. The clear solution was injected into an HPLC and the peptide was detected at 280 nm, in the 8-10 min interval, using a gradient of eluent A (0.1% HCl in 99% H2O/1% ACN (v/v)) and eluent B (0.07% HCl in 10% H2O/90% ACN (v/v)) using a flow rate of 1.5 ml/min. The following gradient was used: 30 to 30% B (5 min), followed by 30 to 37% B (5 min), followed by 37 to 40% B (12.5 min).
IV injection: Solution of peptide in 9% sucrose (2 mg/mL) was injected IV into the tail vein of Balb/C mice at a dose of 5 mg/kg. Blood was then collected immediately from one group of mice (3 mice per group) by bleeding the tail, separately from each mouse (50-100 uL per mouse). Further collections of blood were done from other groups of mice at times 30, 60, 120, 230, and 300 min after injection. Plasma from each blood sample was separated immediately after collection by spinning down red blood cells over a period of 5 min at 4000 rev./min. Plasma was then diluted with an equal volume of saline and refrigerated until analysis.
IP injection: Solution of peptide in 9% sucrose (9.8 mg/mL) was injected IP into Balb/C mice at a dose of 100 mg/kg. Blood was then collected immediately from one group of mice (3 mice per group) by bleeding the tail, separately from each mouse (50-100 uL per mouse). Further collections of blood were done from other groups of mice at times 0.5, 1, 2, 4, 6, 10 h after injection. Plasma from each blood sample was separated immediately after collection by spinning down red blood cells over a period of 5 min at 4000 rev./min. Plasma was then diluted with an equal volume of saline and refrigerated until analysis.
Detection of c(KSKWLWW) HC in plasma by HPLC: Samples were diluted with saline plasma (50-100 uL), added to an equal volume of eluent A (0.1% TFA in 96.5% H2O/0.9% ACN/2.4% MeOH (v/v)), vortexed, and partial precipitation was removed by centrifugation. The clear solution was injected into HPLC and the peptide was detected at 280 nm, in the 18-20 min interval, using a gradient of eluent A (0.1% TFA in 96.5% H2O/0.9% ACN/2.4% MeOH (v/v)) and eluent B (0.05% TFA in 8% H2O/72% ACN/20% MeOH (v/v)) using a flow rate of 1.5 ml/min. The following gradient was used: 0 to 0% B (5 min), followed by 0 to 100% B (25 min).

[2] = trypsin, α-chymotrypsin, subtilisin, blood plasma; RP-HPLC over 24 h
Experimental: Cyclic peptides having SEQ ID NO:13, 18, 26, and 29 were assayed for proteolytic susceptibility.

[3] = test system: S. aureus (MRSA) (ATCC No. 33591); assay: Time-killing curve, S. aureus MRSA ATCC 33591; type: cell-based, Staphylococcus aureus; settings: FIG. 8a; at MIC concentrations
Experimental: (§1) The speed at which several of the cyclic peptides of the invention kill E. coli JM 109 (DE3), Enterococcus faecium SP 180 and S. aureus (MRSA) (ATCC No. 33591 and 33592) was further tested at room temperature and/or at 37° C. A lower temperature tends to enrich the bacterial cultures for mature bacteria because the bacteria are not growing quickly. […] The presence or absence of immature bacteria in the culture may influence the rate at which the bacteria are killed, because immature bacteria tend to be more susceptible to many forms of antibiotics.
To generate the data shown in FIG. 8a, the log of the number of colony forming units (cfu) per ml of culture was determined as a function of time after treatment of S. aureus (MRSA) (ATCC No. 33591) with cyclo[KHLWLW] (closed circles), cyclo[KRKWLWLW] (closed triangles), and cyclo[KQRWLWLW] (open squares) at MIC concentrations. […] The reduction in cfu count was greater than 3 log units. Cyclic peptide cyclo[KHLWLW] killed effectively all S. aureus (MRSA) within about 60 minutes.

[4] = test system: E. coli JM109 (DE3); assay: Time-killing curve, E. coli; type: cell-based, Escherichia coli; settings: FIG. 8b; at MIC concentrations
Experimental: as §1
In FIG. 8b, the log of the number of E. coli colony forming units (cfu) per ml of culture is plotted versus time treated with cyclo[KRKWLWLW] (closed triangles), cyclo[KQRWLWLW] (closed circles), cyclo[KHLWLW] (closed squares), and cyclo[KKWLW] (open squares) at MIC concentrations. […] Cyclic peptide cyclo[KHKLWLW] kills effectively all E. coli within about 90 minutes. Cyclic peptides cyclo[KRKWLWLW] and cyclo[KKWLW] kill effectively all of the E. coli within about 130 minutes. […] Nonetheless, these cyclic peptides kill both types of bacteria very quickly.

| Compound | bioavailability [1] | Vd [1] | clearance [1] | half-life [1] | Kel elimination rate constant [1] | proteolytic stability [2] | time to kill effectively all S. aureus (MRSA) [3] | time to kill effectively all E. coli [4] |
| --- | --- | --- | --- | --- | --- | --- | --- | --- |
| CC(C)C[C@H]1NC(=O)[C@H](Cc2c[nH]c3ccccc23)NC(=O)[C@@H](CCCCN)NC(=O)[C@H](CCCNC(=N)N)NC(=O)[C@@H](CCCNC(=N)N)NC(=O)[C@H](Cc2c[nH]c3ccccc23)NC(=O)[C@@H](CC(C)C)NC(=O)[C@H](Cc2c[nH]c3ccccc23)NC1=O [SEQ ID NO:18, cyclo-(D-Arg-Arg-D-Lys-Trp-D-Leu-Trp-D-Leu-Trp)] (cyclo([dR]R[dK]W[dL]W[dL]W)) | 9% | 0.58 L/kg | 0.16 mL/min | 1.2 h | 0.6 h⁻¹ | stable |  |  |
| CC(C)C[C@H]1NC(=O)[C@H](Cc2c[nH]c3ccccc23)NC(=O)[C@@H](CCCNC(=N)N)NC(=O)[C@H](CCC(N)=O)NC(=O)[C@@H](CCCCN)NC(=O)[C@H](Cc2c[nH]c3ccccc23)NC(=O)[C@@H](CC(C)C)NC(=O)[C@H](Cc2c[nH]c3ccccc23)NC1=O [SEQ ID NO:8, cyclo-(D-Lys-Gln-D-Arg-Trp-D-Leu-Trp-D-Leu-Trp)] (cyclo([dK]Q[dR]W[dL]W[dL]W)) |  |  |  |  |  |  | within about five minutes | within about thirty minutes |
| CC(C)C[C@H]1NC(=O)[C@H](Cc2c[nH]c3ccccc23)NC(=O)[C@@H](CCCCN)NC(=O)[C@H](CO)NC(=O)[C@@H](CCCCN)NC(=O)[C@H](Cc2c[nH]c3ccccc23)NC(=O)[C@@H](CC(C)C)NC(=O)[C@H](Cc2c[nH]c3ccccc23)NC1=O [SEQ ID NO:12, D-Lys-Ser-D-Lys-Trp-D-Leu-Trp-D-Leu-Trp] (cyclo([dK]S[dK]W[dL]W[dL]W)) | 32% | 0.67 L/kg | 0.3 mL/min | 0.83 h | 0.84 h⁻¹ |  |  |  |

From patent US20050107289A1, “Anti-microbial peptides and compositions” (priority 2001, published 2005)
